Measurements from the Bradley open melting point set (2014).

SMILES | melting point [°C]
COC1(CBr)OC(COC(=O)c2ccc(C)cc2)C(OC(=O)c2ccc(C)cc2)C1OC(=O)c1ccc(C)cc1 (stereo not given) | 149
Cc1c(C2(c3cc(Br)c(O)c(Br)c3C)OS(=O)(=O)c3ccccc32)cc(Br)c(O)c1Br | 225
CCCCCCCCOc1cc(N(NC(=O)OC(C)(C)C)C(=O)OC(C)(C)C)cc(OCCCCCCCC)c1OCCCCCCCC | 73.5
CCCCCCCCCCOc1cc(N(NC(=O)OC(C)(C)C)C(=O)OC(C)(C)C)cc(OCCCCCCCCCC)c1OCCCCCCCCCC | 56
CCCCCCCCSc1cc(N(NC(=O)OC(C)(C)C)C(=O)OC(C)(C)C)cc(SCCCCCCCC)c1SCCCCCCCC | 51.5
CCCCCCCCCCSc1cc(N(NC(=O)OC(C)(C)C)C(=O)OC(C)(C)C)cc(SCCCCCCCCCC)c1SCCCCCCCCCC | 50.5
CCCCCCCCCCCCSc1cc(N(NC(=O)OC(C)(C)C)C(=O)OC(C)(C)C)cc(SCCCCCCCCCCCC)c1SCCCCCCCCCCCC | 50
CCCCCCCCOc1ccc(N(NC(=O)OC(C)(C)C)C(=O)OC(C)(C)C)cc1OCCCCCCCC | 56
CC12CCC(/C(=C/N(Cl)c3ccccc3)C1=O)C2(C)C (stereo not given) | 103
CC1(C)CC(=O)c2c(cc3c(c2[Si](C)(C)C)-c2ccccc2OC3)C1 | 143
CC1(C)CC(=O)c2c(cc3c(c2-c2ccccc2)-c2ccccc2OC3)C1 | 191
CCOC(=O)/C(C#N)=C/c1ccc(-c2ccccc2Br)o1 | 124
CC[C@H]1OC(=O)[C@H](C)[C@@H](O[C@H]2C[C@@](C)(OC)[C@@H](O)[C@H](C)O2)[C@H](C)[C@@H](O[C@@H]2O[C@H](C)C[C@H](N(C)C)[C@H]2O)[C@](C)(O)C[C@@H](C)CN(C)[C@H](C)[C@@H](O)[C@]1(C)O | 114
COC1=C(OC)C(=O)C(C/C=C(\C)CC/C=C(\C)CC/C=C(\C)CC/C=C(\C)CC/C=C(\C)CC/C=C(\C)CC/C=C(\C)CC/C=C(\C)CC/C=C(\C)CCC=C(C)C)=C(C)C1=O | 49
CON(/C=C1\C(=O)C2(C)CCC1C2(C)C)c1ccccc1 (stereo not given) | 76
COc1ccc(/N=N/c2c(N)nn3c(C(F)(F)F)cc(C)nc23)cc1 | 159
C[C@]12C/C(=C/O)C(=O)C[C@@H]1CC[C@@H]1[C@@H]2CC[C@@]2(C)[C@H]1CC[C@]2(C)O | 179
ClC1=C(Cl)[C@]2(Cl)C3C(Cl)C=CC3[C@@]1(Cl)C2(Cl)Cl (stereo not given in full) | 95.5
O=C1CCCc2cc3c(c(-c4ccccc4)c21)-c1cc(Cl)ccc1OC3 | 185
ClC1=C(Cl)[C@]2(Cl)[C@H]3[C@H]([C@@H]4C=C[C@H]3C4)[C@@]1(Cl)C2(Cl)Cl | 104
COc1ccccc1NC(=O)c1cnc(C(C)(C)C)c(Cl)n1 | 119
CC(=O)C=Cc1oc2ccc(Cl)cc2c1-c1ccc(C)o1 | 119

SMILES | melting point [°C]
N=C(NCCCCCCNC(=N)NC(=N)Nc1ccc(Cl)cc1)NC(=N)Nc1ccc(Cl)cc1 | 134
CCC(C)NC(=O)C(C(F)(F)F)C(F)(F)F (stereo not given) | 112
NCCNCCNCCNCCN | -40
COc1ccc(N=C(CNc2ccc(OC)cc2)Nc2ccc(OC)cc2)cc1 | 159
C=C1N(C(C)=O)c2ccccc2C1(C)C(=O)OC (stereo not given) | 60
CC(=O)NC1C2CCC(C)(C1NC(C)=O)C2(C)C (stereo not given) | 250
CC(=O)CCc1oc2ccc(NC(C)=O)cc2c1-c1ccc(C)o1 | 132
CC1(C)OC(C)(C(O)(Cc2ccccc2)Cc2ccccc2)CCC1C(=O)O (stereo not given) | 138
CC1(CO)NC(C(=O)O)CC2c3ccccc3NC21 (stereo not given) | 260
O=C(O)COCCNC(=O)C12CC3CC(CC(C3)C1)C2 | 122
O=C(O)[C@@H]1C[C@@H]2C[C@H]1[C@@H](O)C2 | 161
COC(=O)[C@]1(C(=O)O)[C@@H]2CCC[C@@H]21 | 137
O=C(O)c1ccccc1-c1c2cc(Br)c(=O)c(Br)c-2oc2c(Br)c(O)c(Br)cc12 | 300
COC(=O)CC(C)CCC1C(C)(O)CCC2C(C)(C)CCCC21C (stereo not given) | 70
COC(=O)c1cc(C)n(CN(Cn2nc(C(=O)OC)cc2C)c2ccccc2)n1 | 125
COC(=O)c1ccc2c(c1)CC1(CCC(c3ccc(C(C)(C)C)cc3)CC1)C2 (stereo not given) | 117
CC(=O)OC1CCC2(C)C(C1)CC1(OCCO1)C1C2CCC2(C)C1CCC21OCCO1 (stereo not given) | 208
CCCC1(O)CCC2C3CCC4CC(OC(C)=O)CCC4(C)C3CCC21C (stereo not given) | 121
CC1(C(=O)OC2OC(CO)C(O)C(O)C2O)CCCC2(C)C3CCC4CC3(CCC12)CC4(CO)OC1OC(CO)C(O)C(O)C1O (stereo not given) | 198
CC(=O)OCC1OC(C(N)=O)C(OC(C)=O)C(OC(C)=O)C1OC(C)=O (stereo not given) | 129
CC(=O)OCC1OC(OC2C(COC(C)=O)OC(OC(C)=O)C(OC(C)=O)C2OC(C)=O)C(OC(C)=O)C(OC(C)=O)C1OC(C)=O (stereo not given) | 138
CCCOC(=O)C1=C(C)NC(C)=C(C(=O)OCCC)C1c1cccc(OC)c1O | 167

SMILES | melting point [°C]
O=C1C=CC(=O)C2CC3=C(CC4=C(C3)CC3C(=O)C=CC(=O)C3C4)CC12 (stereo not given) | 338
CC12CCC3C(C1CCC2=O)C1(CC2CC(=O)CCC23C)OCCO1 (stereo not given) | 207
CC(=O)Nc1ccc(C2=NN(c3ccccc3)C(=O)C2)cc1 | 210
Cc1ccccc1C1(C#N)Cc2ccccc2C(=O)O1 (stereo not given) | 122
CC1(C)OC(=O)C(=Cc2ccc(-c3ccccc3)o2)C(=O)O1 | 143
O=C1OC(c2ccccc2)=N/C1=C/c1ccc(-c2cccc([N+](=O)[O-])c2)o1 | 145
CC1(C)C(=O)OC2=C(CC3C4CC=C5CC(O)CCC5(C)C4CCC23C)C1c1ccccc1 (stereo not given) | 233
CCC1C2=C(OC(=O)C1(C)C)c1ccc(OC)cc1CC2 (stereo not given) | 143
O=C1OCCOC(=O)C2CCCCC2C(=O)OCCOC(=O)C2CCCCC12 (stereo not given) | 140
O=S(=O)(NS(=O)(=O)C(F)(F)F)C(F)(F)F | 51.5
O=S(=O)(O)CCCNC(CO)(CO)CO | 230
Cc1ccc(Sc2ccccc2NS(=O)(=O)c2ccc(C)cc2)cc1 | 83.8
CC1(C)c2ccccc2N(Cc2ccccc2)C12C=Cc1cc([N+](=O)[O-])ccc1O2 (stereo not given) | 159
CC(=O)C(=Cc1ccc(-c2cccc([N+](=O)[O-])c2)o1)C(C)=O | 154
CC1(C)CC(=O)C(=NNc2ccccc2[N+](=O)[O-])C(=O)C1 | 140
OC[C@H]1O[C@@H]2O[C@H]3[C@H](O)[C@@H](O)[C@@H](O[C@H]4[C@H](O)[C@@H](O)[C@@H](O[C@H]5[C@H](O)[C@@H](O)[C@@H](O[C@H]6[C@H](O)[C@@H](O)[C@@H](O[C@H]7[C@H](O)[C@@H](O)[C@@H](O[C@H]8[C@H](O)[C@@H](O)[C@@H](O[C@H]1[C@H](O)[C@H]2O)O[C@@H]8CO)O[C@@H]7CO)O[C@@H]6CO)O[C@@H]5CO)O[C@@H]4CO)O[C@@H]3CO | 290
CC1(C)OC(CP(c2ccccc2)c2ccccc2)C(CP(c2ccccc2)c2ccccc2)O1 (stereo not given) | 87
COC(=O)C1C(c2ccccc2)C(C#N)=C(C(SC)SC)C1(O)c1ccccc1 (stereo not given) | 165
CCOC(=O)c1c(SC)n[nH]c1N | 143
Cc1c(CSC2OCC(O)C(O)C2O)c(C)c(CSC2OCC(O)C(O)C2O)c(C)c1CSC1OCC(O)C(O)C1O (stereo not given) | 209
CCOC(=O)c1sc2sc(C#N)c(N)c2c1N | 262
